Measurements as given in patent US7652020B2, “Compounds for the treatment of inflammatory disorders” (Schering Corporation, priority 2004, dated 2010).
pKi: −log10 of the molar value.

Biological target: T1, purified catalytic domain of recombinant human TACE (rhTACEc) (Homo sapiens, UniProt P78536, N452Q/S266A)
T1 construct: Residue 215 to 477 with two mutation (S266A and N452Q) and a 6×His tail; 6xHis (C); made in house; host or cells: baculovirus/Hi5 insect cells
Experiment: TACE kinetic assay: cleavage of internally quenched peptide substrate SPDL-3, fluorescence
Assay type: biochemical
Settings: TACE inhibitory activity, class symbols; read-out: Ki
Description: TACE activity is determined by a kinetic assay measuring the rate of increase in fluorescent intensity generated by TACE catalyzed cleavage of an internally quenched peptide substrate (SPDL-3). […] It is purified from the baculovirus/Hi5 cells expression system using affinity chromatography. […] MCA is (7-Methoxycoumarin-4-yl)acetyl. Dpa is N-3-(2,4-Dinitrophenyl)-L-2,3-diaminopropionyl.
A 50 μl assay mixture contains 20 mM HEPES, pH 7.3, 5 mM CaCl2, 100 μM ZnCl2, 2% DMSO, 0.04% Methylcellulose, 30 μM SPDL-3, 70 pM rhTACEc and a test compound. RhTACEc is pre-incubated with the testing compound for 90 min. at 25° C. Reaction is started by addition of the substrate. […] Rate of enzymatic reaction is shown as Units per second. Effect of a test compound is shown as % of TACE activity in the absence of the compound.

T1 sequence (P78536 215-477 S266A/N452Q): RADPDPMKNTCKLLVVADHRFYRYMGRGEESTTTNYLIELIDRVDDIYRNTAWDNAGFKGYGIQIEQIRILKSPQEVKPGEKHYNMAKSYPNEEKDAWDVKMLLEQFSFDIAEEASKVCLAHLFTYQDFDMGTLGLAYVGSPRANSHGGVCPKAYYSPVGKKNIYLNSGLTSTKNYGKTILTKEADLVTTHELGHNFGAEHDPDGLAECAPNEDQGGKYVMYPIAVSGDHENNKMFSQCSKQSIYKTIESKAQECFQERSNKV

Structure (SMILES)	pKi
C[C@@H](NC(=O)[C@H](O)[C@@H](O)C(=O)N1CCCCC1c1ccc(Cl)cc1)c1ccc(-n2cccn2)cc1 (stereo partly shown) [Compound 2418]	7.00 to 7.70
CCNc1nc([C@H]2C[C@@H](C)CN2C(=O)[C@H](O)[C@@H](O)C(=O)N[C@H](C)c2ccc(-n3cccn3)cc2)cs1 [Compound 2271]	> 7.70
CC1c2cncnc2CN1C(=O)[C@H](O)[C@@H](O)C(=O)N[C@H](C)c1ccc(-n2cccn2)cc1 (stereo partly shown) [Compound 2050]	7.00 to 7.70
C[C@@H](NC(=O)[C@H](O)[C@@H](O)C(=O)N1CC(C)(C)CC1(C)c1cccc(Cl)c1)c1ccc(-n2cccn2)cc1 (stereo partly shown) [Compound 2238]	7.00 to 7.70
CCOc1cc(F)ccc1-c1ccc(CNC(=O)[C@H](O)[C@@H](O)C(=O)N2Cc3cccnc3C2)cc1 [Compound 2036]	> 7.70
C[C@@H](NC(=O)[C@H](O)[C@@H](O)C(=O)N1Cc2cccnc2C1)c1cccc(OCc2ccccc2)c1 [Compound 2308]	< 6.00
CC(C)(NC(=O)[C@H](O)[C@@H](O)C(=O)N1CCCC1)C1CCN(c2ccc(F)cc2C#N)CC1 [Compound 2157]	7.00 to 7.70
NC[C@@H]1[C@H]2CN(C(=O)[C@H](O)[C@@H](O)C(=O)NCC3CCN(c4ccccc4OC(F)(F)F)CC3)C[C@@H]12 [Compound 2156]	7.00 to 7.70
C[C@@H](NC(=O)[C@H](O)[C@@H](O)C(=O)N1CC(C)(C)C[C@@]1(C)c1cccc(Cl)c1)c1ccc(-n2cccn2)cc1 [Compound 2239]	< 6.00
O=C(NCC1CCN(c2ccc(F)cc2OCC(F)(F)F)CC1)[C@H](O)[C@@H](O)C(=O)N1CCCC1 [Compound 2142]	7.00 to 7.70
C[C@@H](NC(=O)[C@H](O)[C@@H](O)C(=O)N1CCC[C@@H]1c1ccn(C)n1)c1ccc(-n2cccn2)cc1 [Compound 2248]	> 7.70
CCOc1cc(F)ccc1-c1ccc(CNC(=O)[C@](C)(O)[C@@H](O)C(=O)N2Cc3cccnc3C2)cc1 [Compound 2033]	> 7.70
CNc1nc([C@H]2C[C@H]3C[C@H]3N2C(=O)[C@H](O)[C@@H](O)C(=O)N[C@H](C)c2ccc(-n3cccn3)cc2)cs1 [Compound 2245]	> 7.70
N#Cc1cc(F)ccc1N1[C@@H]2CC[C@H]1CC(CNC(=O)[C@H](O)[C@@H](O)C(=O)N1CCC[C@@H]1c1ccccc1)C2 (stereo partly shown) [Compound 2148]	6.00 to 7.00
COc1nc(CNC(=O)[C@H](O)[C@@H](O)C(=O)N2CCCC2)ccc1-c1ccccc1OC(F)(F)F [Compound 2346]	< 6.00

Now from value to compound:

pKi	Structure (SMILES)
> 7.70	CC(C)Nc1nc([C@@H]2c3ccccc3CN2C(=O)[C@H](O)[C@@H](O)C(=O)N[C@H](C)c2ccc(-n3cccn3)cc2)cs1 [Compound 2593]
7.00 to 7.70	C[C@@H](NC(=O)[C@H](O)[C@@H](O)C(=O)N1CCc2ccccc21)c1ccc(-n2cccn2)cc1 [Compound 2441]
> 7.70	C[C@@H](NC(=O)[C@H](O)[C@@H](O)C(=O)N1CCc2ccccc2C1)c1ccc(-n2cccn2)cc1 [Compound 2438]
< 6.00	CC(c1cccc(Cl)c1)N(C(=O)[C@H](O)[C@@H](O)C(=O)N[C@H](C)c1ccc(-n2cccn2)cc1)C1CC1 (stereo partly shown) [Compound 2483]
7.00 to 7.70	CCC(c1cccc(Cl)c1)N(C)C(=O)[C@H](O)[C@@H](O)C(=O)N[C@H](C)c1ccc(-n2cccn2)cc1 (stereo partly shown) [Compound 2487]
> 7.70	CNc1nc(C2c3ccccc3CN2C(=O)[C@H](O)[C@@H](O)C(=O)N[C@H](C)c2ccc(-n3cccn3)cc2)cs1 (stereo partly shown) [Compound 2445]
> 7.70	CCNc1nc([C@H]2c3ccccc3CCN2C(=O)[C@H](O)[C@@H](O)C(=O)N[C@H](C)c2ccc(-n3cccn3)cc2)cs1 [Compound 2587]
6.00 to 7.00	C[C@@H](NC(=O)[C@H](O)[C@@H](O)C(=O)N1CCC(=O)N1c1cccc(Cl)c1)c1ccc(-n2cccn2)cc1 [Compound 2494]
> 7.70	C[C@@H](NC(=O)[C@H](O)[C@@H](O)C(=O)N1CCC[C@@H]1c1ccn(-c2cccc(F)c2)n1)c1ccc(-n2cccn2)cc1 [Compound 2598]

Same assay, conditions: TACE, representative compounds, numeric values; read-out: Ki

Structure (SMILES)	pKi
CCNc1nnc(C2c3ccccc3CN2C(=O)[C@H](O)[C@@H](O)C(=O)N[C@H](C)c2ccc(-n3cccn3)cc2)o1 (stereo partly shown)	9.25
